What all share (experiment): Antifungal growth inhibition in Sabouraud's liquid medium
Format in all cases: cell-based

In one assay the test system is Cryptococcus neoformans. Particulars: Cryptococcus neoformans, 336 h; Cr.n.; tested at 100, 10, 1 μg/ml; read-out: Concentrations in μg/ml for 100% Inhibition of Growth. Here is the method: (§1) Tests for the control of fungal organisms were performed using Sabouraud's liquid medium (1 g. of neopeptone Difco and 2 g. of glucose Difco per 100 ml. distilled water) in test tubes, each containing 4.5 ml. of liquid medium, autoclaved at 120° C for 15 minutes. The imidazolium salts were prepared for testing by dissolving in 50% ethanol to a concentration of 20 mg./ml. and thereafter diluting with sterile distilled water to obtain a concentration of 10 mg./ml. Successive decimal dilutions were then made with sterile distilled water to prepare a series of test solutions. In carrying out the test, 0.5 ml. of one of the test solutions is added to 4.5 ml. of Sabouraud's liquid medium to obtain a test medium. In this manner, from appropriate test solution, test media containing 100 μg, 10 μg and 1 μg of imidazolium salt per milliliter of medium were obtained.
(§2) Control tubes were prepared by adding 0.5 ml. of sterile distilled water to 4.5 ml. of medium. Ethanol was also added to simulate the amount which would be present in the test media. Filamentous fungi were incubated at 25° C for two to three weeks. A square block of side 2 mm. was excised and inoculated into the liquid medium. A 3-day old culture on Sabouraud's liquid medium was used for yeasts. The inoculum was 0.05 ml. per tube. All cultures were incubated at 25° C for 14 days.

The subject of assay [1] is Ctenomyces mentagrophytes. Particulars: Trichophyton mentagrophytes, 336 h; Ct.m.; tested at 100, 10, 1 μg/ml; read-out: Concentrations in μg/ml for 100% Inhibition of Growth. On the procedure:
as §1, §2

In the next assay the test system is Microsporum canis. Particulars: Microsporum canis, 336 h; M.c.; tested at 100, 10, 1 μg/ml; read-out: Concentrations in μg/ml for 100% Inhibition of Growth. Here is the method: as §1, §2
A further assay has as its system Trichophyton rubrum. Particulars: Trichophyton rubrum, 336 h; Tr.r.; tested at 100, 10, 1 μg/ml; read-out: Concentrations in μg/ml for 100% Inhibition of Growth. Here is the method:
as §1, §2

For `COc1cccc(C(=O)C[n+]2ccn(CC(OCc3ccc(Cl)cc3Cl)c3ccc(Cl)cc3Cl)c2)c1.[Br-]` (stereo not drawn) [CH2COC6H4mOCH3, 1-[2,4-dichloro-β-(2,4-dichlorobenzyloxy)phenethyl]-3-(m-methoxyphenacyl)imidazolium bromide], the MIC turned out to be 10 µg/mL in the assay with Cryptococcus neoformans, 1 µg/mL in assay [1], 10 µg/mL in the assay with Microsporum canis and 1 µg/mL in the assay with Trichophyton rubrum.

Consider `COc1ccc(C(=O)C[n+]2ccn(CC(OCc3ccc(Cl)cc3Cl)c3ccc(Cl)cc3Cl)c2)cc1.[Br-]` (stereo not drawn) [CH2COC6H4p(OCH3), 1-[2,4-Dichloro-β-(2,4-dichlorobenzyloxy)phenethyl]-3-(p-methoxyphenacyl)imidazolium bromide], for which the MIC in the assay with Cryptococcus neoformans stood at 10 µg/mL; in assay [1] it was 10 µg/mL; in the assay on Microsporum canis, 10 µg/mL; in the assay with Trichophyton rubrum, 1 µg/mL.

For the molecule `O=C(Cn1cc[n+](CC(OCc2ccc(Cl)cc2Cl)c2ccc(Cl)cc2Cl)c1)c1ccc(Br)cc1.[Cl-]` (stereo not drawn) [CH2COC6H4pBr, 1-(p-bromobenzoylmethyl)-3-[2,4-dichloro-β-(2,4-dichlorobenzyloxy)phenethyl]imidazolium chloride], the MIC with Cryptococcus neoformans is 1 µg/mL; in assay [1], 1 µg/mL; with Microsporum canis it was 10 µg/mL; with Trichophyton rubrum, 1 µg/mL.

As to `O=C(Cn1cc[n+](CC(OCc2ccc(Cl)cc2Cl)c2ccc(Cl)cc2Cl)c1)c1ccc(Cl)cc1.[Br-]` (stereo not drawn) [CH2COC6H4pCl, 1-(p-chlorobenzoylmethyl)-3-[2,4-dichloro-β-(2,4-dichlorobenzyloxy)phenethyl]imidazolium bromide], the MIC (with Cryptococcus neoformans; in assay [1]; with Microsporum canis; with Trichophyton rubrum) was 1 µg/mL throughout.

Take `O=C(Cn1cc[n+](CC(OCc2ccc(Cl)cc2Cl)c2ccc(Cl)cc2Cl)c1)c1ccc(Cl)cc1Cl.[Cl-]` (stereo not drawn) [CH2COC6H32,4(Cl)2, 1-(2,4-dichlorobenzoylmethyl)-3-[2,4-dichloro-β-(2,4-dichlorobenzyloxy)phenethyl]imidazolium chloride]: the MIC with Cryptococcus neoformans amounted to 1 µg/mL; in assay [1], 1 µg/mL; with Microsporum canis, 10 µg/mL; in the assay on Trichophyton rubrum, 1 µg/mL.

Regarding `COc1cccc(NC(=O)C[n+]2ccn(CC(OCc3ccc(Cl)cc3Cl)c3ccc(Cl)cc3Cl)c2)c1` (stereo not shown) [CH2CONHC6H4m(OCH3), hydrate], the MIC in the assay with Cryptococcus neoformans stood at 10 µg/mL; in assay [1], 10 µg/mL; in the assay with Microsporum canis, 10 µg/mL; in the assay with Trichophyton rubrum it was 1 µg/mL.

With `O=C(C[n+]1ccn(CC(OCc2ccc(Cl)cc2Cl)c2ccc(Cl)cc2Cl)c1)Nc1ccccc1Cl` (stereo not drawn) [CH2CONHC6H4oCl, 1-[N-(o-chlorophenyl)carbamoylmethyl]-3-[2,4-dichloro-β-(2,4-dichlorobenzyloxy)phenethyl]imidazolium chloride], the MIC worked out at 10 µg/mL in the assay on Cryptococcus neoformans, 10 µg/mL in assay [1], 10 µg/mL with Microsporum canis and 1 µg/mL with Trichophyton rubrum.

For the molecule `O=C(C[n+]1ccn(CC(OCc2ccc(Cl)cc2Cl)c2ccc(Cl)cc2Cl)c1)Nc1ccccc1Oc1ccccc1` (stereo not drawn) [CH2CONHC6H4oOPh, 1-[2,4-dichloro-β-(2,4-dichlorobenzyloxy)phenethyl]-3-[N-(o-phenoxyphenyl)carbamoylmethyl]imidazolium chloride hydrate], the MIC in the assay with Cryptococcus neoformans turned out to be 100 µg/mL; in assay [1], 10 µg/mL; with Microsporum canis, 1 µg/mL; with Trichophyton rubrum, 1 µg/mL.

With `O=C(C[n+]1ccn(CC(OCc2ccc(Cl)cc2Cl)c2ccc(Cl)cc2Cl)c1)NCc1ccccc1Cl` (stereo not shown) [CH2CONHCH2C6H4oCl, 1-[N-(o-Chlorobenzyl)carbamoylmethyl]3-[2,4-dichloroβ-(2,4-dichlorobenzyloxy)phenethyl]imidazolium chloride], the MIC turned out to be 100 µg/mL in the assay with Cryptococcus neoformans, 10 µg/mL in assay [1], 1 µg/mL with Microsporum canis and 1 µg/mL in the assay on Trichophyton rubrum.

As to `Fc1ccc(C(c2ccc(Cl)cc2)[n+]2ccn(CC(OCc3ccc(Cl)cc3Cl)c3ccc(Cl)cc3Cl)c2)cc1` (stereo not shown) [drawing 61], the MIC in the assay with Cryptococcus neoformans was found to be 100 µg/mL; in assay [1] it was 10 µg/mL; with Microsporum canis it was 10 µg/mL; in the assay with Trichophyton rubrum it was 1 µg/mL.

The values above are taken from patent publication US3991202A, “Imidazolium salts” (Janssen Pharmaceutica N.V., priority 1974, dated 1976).
